Legend:
hair growth = test: Inhibition of hair growth (hair mass, treated vs untreated site); type: in vivo, hamster
[1] = Percent reduction in hair shaft cysteine (amino acid analysis of hamster flank organ hairs); type: in vivo; set-up: concentration or dose not given beside the values
[2] = Formation of cysteine-mixed disulfide in vitro (incubation with cystine or cysteine, HPLC); details: pH 7.4, 37° C.
[3] = Formation of cysteine-mixed disulfide in hair shafts after topical treatment; type: in vivo, Golden Syrian hamsters; details: thirteen topical treatments over 18 days, flank organ
[4] = Reduction of cystine (generation of cysteine on incubation with cystine, HPLC); details: 37 C, pH 7.4

Compound: COC(=O)[C@@H](N)CS [L-Cysteine methyl ester]
- Hair Mass Percent Reduction (hair growth; Dose 20%, Vehicle A, topical): 86 ± 3%
- Hair Mass Treated (hair growth; Dose 20%, Vehicle A, topical): 0.28 ± 0.07 mg

Compound: O=C(O)CCSCCC(=O)O [3,3′-Thiodipropionic acid]
- Hair Mass Percent Reduction (hair growth; Dose 20%, Vehicle A, topical): 73 ± 4%
- Hair Mass Treated (hair growth; Dose 20%, Vehicle A, topical): 0.76 ± 0.12 mg

Compound: O=S(=O)(O)CCO [Isethionic acid]
- Hair Mass Percent Reduction (hair growth; Dose 15%, Vehicle A, topical): 50 ± 7%
- Hair Mass Treated (hair growth; Dose 15%, Vehicle A, topical): 1.45 ± 0.22 mg

Compound: CCOC(=O)[C@@H](N)CS [L-Cysteine ethyl ester]
- Hair Mass Percent Reduction (hair growth; Dose 20%, Vehicle A, topical): 82 ± 3%
- Hair Mass Treated (hair growth; Dose 20%, Vehicle A, topical): 0.49 ± 0.08 mg

Compound: O=C(O)c1cc(/N=N/c2ccc(S(=O)(=O)Nc3ccccn3)cc2)ccc1O [Sulfasalazine, reference compound]
- Hair Mass Percent Reduction (hair growth; Dose 20%, Vehicle C, topical): 61 ± 6%
- Hair Mass Treated (hair growth; Dose 20%, Vehicle C, topical): 0.88 ± 0.14 mg
- Percent reduction in hair shaft cysteine ([1]; hamster flank organ hairs): (−2%)

Compound: C=CCSCC=C [Allyl sulfide]
- Hair Mass Percent Reduction (hair growth; Dose 20%, Vehicle B, topical): 17 ± 10%
- Hair Mass Treated (hair growth; Dose 20%, Vehicle B, topical): 1.74 ± 0.16 mg

Compound: N[C@H](CS)C(=O)O [D-Cysteine]
- Hair Mass Percent Reduction (hair growth; Dose 10%, Vehicle A, topical): 60 ± 3%
- Hair Mass Treated (hair growth; Dose 10%, Vehicle A, topical): 1.20 ± 0.17 mg

Compound: CC(C)(S)[C@@H](N)C(=O)O [D-Penicillamine, reference compound]
- Hair Mass Percent Reduction (hair growth; Dose 15%, Vehicle A, topical): 65 ± 5%
- Hair Mass Treated (hair growth; Dose 15%, Vehicle A, topical): 0.57 ± 0.07 mg
- Percent reduction in hair shaft cysteine ([1]; hamster flank organ hairs): 50%
- Formation of Cysteine mixed disulfide in-vitro [2]: YES
- Formation of Cysteine mixed disulfide in hair shaft [3]: YES

Compound: CSCCCN [3-(Methylthio)-propylamine]
- Hair Mass Percent Reduction (hair growth; Dose 2%, Vehicle A, topical): 22 ± 13%
- Hair Mass Treated (hair growth; Dose 2%, Vehicle A, topical): 0.97 ± 0.13 mg

Compound: CCN(CC)C(=S)S [Diethyldithiocarbamic acid]
- Hair Mass Percent Reduction (hair growth; Dose 15%, Vehicle A, topical): 68 ± 7%
- Hair Mass Treated (hair growth; Dose 15%, Vehicle A, topical): 0.65 ± 0.09 mg
- Percent reduction in hair shaft cysteine ([1]; hamster flank organ hairs): 18%

Compound: CC(=O)N[C@@H](CS)C(=O)O [N-Acetyl-L-Cysteine, reference compound]
- Hair Mass Percent Reduction (hair growth; Dose 15%, Vehicle A, topical): 80 ± 4%
- Hair Mass Treated (hair growth; Dose 15%, Vehicle A, topical): 0.39 ± 0.07 mg

Compound: CC(C)(SSC(C)(C)[C@@H](N)C(=O)O)[C@@H](N)C(=O)O [D-Penicillamine disulfide]
- Hair Mass Percent Reduction (hair growth; Dose 15%, Vehicle A, topical): 55 ± 4%
- Hair Mass Treated (hair growth; Dose 15%, Vehicle A, topical): 1.09 ± 0.23 mg

Compound: CCCCCCCCCCCCOC(=O)CCSCCC(=O)OCCCCCCCCCCCC [3,3′-Thiodipropionic acid dilauryl ester]
- Hair Mass Percent Reduction (hair growth; Dose 5%, Vehicle D, topical): 30 ± 7%
- Hair Mass Treated (hair growth; Dose 5%, Vehicle D, topical): 1.70 ± 0.21 mg
- Hair Mass Percent Reduction (hair growth; Dose 20%, Vehicle D, topical): 50 ± 4%
- Hair Mass Treated (hair growth; Dose 20%, Vehicle D, topical): 1.07 ± 0.10 mg

Compound: O=S(=O)(O)CC(S)CS (stereo not shown) [2,3,-Dimercapto-1-propanesulfonic acid]
- Hair Mass Percent Reduction (hair growth; Dose 20%, Vehicle A, topical): 79 ± 3%
- Hair Mass Treated (hair growth; Dose 20%, Vehicle A, topical): 0.64 ± 0.08 mg
- Percent reduction in hair shaft cysteine ([1]; hamster flank organ hairs): 40%
- Formation of Cysteine mixed disulfide in-vitro [2]: YES
- Reduction of Cystine [4]: YES

Compound: NCCSC[C@H](N)C(=O)O [S-2-Aminoethyl-L-cysteine]
- Hair Mass Percent Reduction (hair growth; Dose 20%, Vehicle A, topical): 50 ± 11%
- Hair Mass Treated (hair growth; Dose 20%, Vehicle A, topical): 0.99 ± 0.20 mg

Compound: O=C(O)c1ccccc1S [Thiosalicylic acid]
- Hair Mass Percent Reduction (hair growth; hamster, in vivo): 89 ± 2%
- Hair Mass Treated (hair growth; hamster, in vivo): 0.18 ± 0.04 mg
- Percent reduction in hair shaft cysteine ([1]; hamster, in vivo): 14%

Compound: O=C(O)CCCSSCCCC(=O)O [3-Carboxypropyl disulfide]
- Hair Mass Percent Reduction (hair growth; Dose 15%, Vehicle A, topical): 74 ± 4%
- Hair Mass Treated (hair growth; Dose 15%, Vehicle A, topical): 0.70 ± 0.14 mg

Compound: NCCS [2-Mercaptoethylamine (Cysteamine), 2-Mercaptoethylamine, reference compound]
- Hair Mass Percent Reduction (hair growth; Dose 20%, Vehicle A, topical): 86 ± 3%
- Hair Mass Treated (hair growth; Dose 20%, Vehicle A, topical): 0.30 ± 0.09 mg
- Percent reduction in hair shaft cysteine ([1]; hamster flank organ hairs): 50%
- Formation of Cysteine mixed disulfide in-vitro [2]: YES
- Formation of Cysteine mixed disulfide in hair shaft [3]: YES
- Reduction of Cystine [4]: YES

Compound: N[C@@H](CS)C(=O)NCC(=O)O [Cystenyl-glycine]
- Hair Mass Percent Reduction (hair growth; Dose 15%, Vehicle A, topical): 55 ± 8%
- Hair Mass Treated (hair growth; Dose 15%, Vehicle A, topical): 0.93 ± 0.18 mg
- Reduction of Cystine [4]: YES

Compound: O=C(O)CCCCC1CCSS1 (racemic) [DL-α-Lipoic acid (reduced form), DL-α-Lipoic acid]
- Hair Mass Percent Reduction (hair growth; Dose 5%, Vehicle B, topical): 16 ± 5%
- Hair Mass Treated (hair growth; Dose 5%, Vehicle B, topical): 2.67 ± 0.26 mg
- Hair Mass Percent Reduction (hair growth; Dose 15%, Vehicle A, topical): 56 ± 6%
- Hair Mass Treated (hair growth; Dose 15%, Vehicle A, topical): 0.74 ± 0.09 mg

Compound: C[C@H](CS)C(=O)N1CCC[C@H]1C(=O)O [Captopril, reference compound]
- Hair Mass Percent Reduction (hair growth; Dose 10%, Vehicle A, topical): 57 ± 5%
- Hair Mass Treated (hair growth; Dose 10%, Vehicle A, topical): 1.49 ± 0.20 mg
- Percent reduction in hair shaft cysteine ([1]; hamster flank organ hairs): 26%
- Formation of Cysteine mixed disulfide in-vitro [2]: YES
- Reduction of Cystine [4]: YES

Compound: 5′-Deoxy-5′-methylthioadenosine
- Hair Mass Percent Reduction (hair growth; Dose 10%, Vehicle A, topical): 57 ± 6%
- Hair Mass Treated (hair growth; Dose 10%, Vehicle A, topical): 1.25 ± 0.17 mg
- Percent reduction in hair shaft cysteine ([1]; hamster flank organ hairs): 11%

Compound: O=C(O)[C@@H](S)[C@@H](S)C(=O)O [meso-2,3,-Dimercaptosuccinic acid]
- Hair Mass Percent Reduction (hair growth; Dose 20%, Vehicle C, topical): 50 ± 5%
- Hair Mass Treated (hair growth; Dose 20%, Vehicle C, topical): 1.08 ± 0.16 mg
- Percent reduction in hair shaft cysteine ([1]; hamster flank organ hairs): 22%
- Reduction of Cystine [4]: YES

— US6743419B1, “Method of reducing hair growth employing sulfhydryl active compounds” (The Gillette Company, priority 1992, dated 2004)
